The values that follow come from BindingDB's records for doi:10.1016/s0969-8051(99)00080-3 (Emory University, 2000).

The target of experiment [1] is Sodium-dependent dopamine transporter (Homo sapiens, UniProt Q01959).
For experiment [2], the target named is Sodium-dependent noradrenaline transporter (Homo sapiens, UniProt P23975).
Sequence of Sodium-dependent noradrenaline transporter (P23975 whole entry): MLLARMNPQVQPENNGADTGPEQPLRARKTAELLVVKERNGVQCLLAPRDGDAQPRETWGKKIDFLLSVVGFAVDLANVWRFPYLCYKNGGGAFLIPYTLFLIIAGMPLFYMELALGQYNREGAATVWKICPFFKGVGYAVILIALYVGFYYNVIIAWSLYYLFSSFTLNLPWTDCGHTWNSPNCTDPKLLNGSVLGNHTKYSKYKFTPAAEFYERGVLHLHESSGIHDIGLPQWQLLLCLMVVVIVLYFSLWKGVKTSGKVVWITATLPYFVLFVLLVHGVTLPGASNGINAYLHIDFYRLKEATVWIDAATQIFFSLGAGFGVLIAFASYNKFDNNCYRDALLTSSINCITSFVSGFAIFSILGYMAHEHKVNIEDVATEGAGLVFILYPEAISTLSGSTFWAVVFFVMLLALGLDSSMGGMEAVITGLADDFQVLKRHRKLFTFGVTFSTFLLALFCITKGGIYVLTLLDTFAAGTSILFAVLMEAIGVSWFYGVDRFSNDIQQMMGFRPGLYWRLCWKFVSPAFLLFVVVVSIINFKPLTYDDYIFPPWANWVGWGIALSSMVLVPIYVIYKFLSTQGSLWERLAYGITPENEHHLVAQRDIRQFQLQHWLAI

Sequence of Sodium-dependent dopamine transporter (Q01959 whole entry): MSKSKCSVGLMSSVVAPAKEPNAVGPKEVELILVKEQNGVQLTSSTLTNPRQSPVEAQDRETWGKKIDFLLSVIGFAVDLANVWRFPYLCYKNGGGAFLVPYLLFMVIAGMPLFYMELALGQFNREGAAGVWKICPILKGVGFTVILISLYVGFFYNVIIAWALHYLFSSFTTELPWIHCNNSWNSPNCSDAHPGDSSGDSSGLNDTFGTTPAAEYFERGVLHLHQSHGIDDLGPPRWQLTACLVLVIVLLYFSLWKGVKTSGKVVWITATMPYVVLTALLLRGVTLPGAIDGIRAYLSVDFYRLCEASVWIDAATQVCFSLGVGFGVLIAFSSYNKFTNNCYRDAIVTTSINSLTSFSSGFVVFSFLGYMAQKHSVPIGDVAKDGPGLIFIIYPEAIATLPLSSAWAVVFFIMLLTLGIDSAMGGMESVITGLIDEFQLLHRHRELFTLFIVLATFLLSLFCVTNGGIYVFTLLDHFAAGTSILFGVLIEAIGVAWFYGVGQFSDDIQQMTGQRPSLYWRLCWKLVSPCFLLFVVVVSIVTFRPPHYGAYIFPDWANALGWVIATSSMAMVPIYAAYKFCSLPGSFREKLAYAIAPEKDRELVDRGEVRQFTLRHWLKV

What is called Ki is the equilibrium dissociation constant of an inhibitor or competing ligand from its target. As for `COC(=O)C1C(c2ccc(Cl)cc2)CC2CCC1N2CCF` (configuration not stated) [MOLI000038], the Ki in experiment [1] is 1.53 nM; in experiment [2], 240 nM.
